Reference: paper PMC12209990, “Effect of Cytochrome P450 3A Inhibition and Induction by Itraconazole and Rifampin on Tazemetostat Pharmacokinetics in Patients With Advanced Malignancies” (Clinical Pharmacology in Drug Development, 2025)

How the values were obtained:
CYP3A = system: CYP3A; design: method as in PMID 29473431, PMID 38520556, PMID 33492746; details: in vitro; cited from earlier work
[1] = Safety (TEAEs) Part 1: tazemetostat coadministered with itraconazole
Method: Part 1 of the study evaluated the DDI between tazemetostat and itraconazole. On the mornings of Days 1 and 15, patients received a single dose of tazemetostat 400 mg orally. On Days 3‐14, patients received tazemetostat 400 mg twice daily (morning and evening). On Days 18‐20, patients received itraconazole 200 mg orally once daily in the morning. On Days 21‐35, tazemetostat 400 mg twice daily was coadministered in the morning with a single dose of itraconazole 200 mg. On Day 36, patients received a single dose of tazemetostat 400 mg coadministered in the morning with a single dose of itraconazole 200 mg. On Days 37 and 38, patients received a single dose of itraconazole 200 mg (Figure 1A). Throughout Part 1, administration of itraconazole occurred 1 hour after a meal.
(§1) Safety was assessed by monitoring treatment‐emergent adverse events (TEAEs) and vital signs, electrocardiography, and clinical laboratory tests. TEAEs were defined as adverse events that started or worsened in severity on or after the date of the first dose of the study drug through 30 days after the last dose. Treatment‐related TEAEs were summarized by each study drug for both study parts. Adverse events were coded using the Medical Dictionary for Regulatory Activities Version 23.1 and graded per Common Terminology Criteria for Adverse Events Version 5.0.

[2] = design: method as in PMID 29473431, PMID 38520556, PMID 33492746; details: doses of 200‐1600 mg twice daily; cited from earlier work
[3] = Safety (TEAEs) Part 2: tazemetostat coadministered with rifampin
Method: Part 2 of the study evaluated the DDI between tazemetostat and rifampin. On the mornings of Days 1 and 15, patients received a single dose of tazemetostat 800 mg orally. On Days 3‐14, patients received tazemetostat 800 mg twice daily. On Days 17‐23, patients received tazemetostat 800 mg twice daily, coadministered in the morning with a single dose of rifampin 600 mg orally. On the morning of Day 24, patients received a single dose of tazemetostat 800 mg coadministered with rifampin 600 mg. On the morning of Day 25, patients received rifampin 600 mg (Figure 1B). Throughout Part 2, administration of rifampin occurred 1 hour before a meal.
as §1

CCN(c1cc(-c2ccc(CN3CCOCC3)cc2)cc(C(=O)NCc2c(C)cc(C)[nH]c2=O)c1C)C1CCOCC1 [Tazemetostat]
metabolism by CYP3A (CYP3A): mainly metabolized by cytochrome P450 (CYP), family 3, subfamily A (CYP3A) | Deaths due to serious TEAEs ([1]; Part 1, within 30 days following the last dose, tazemetostat with itraconazole, neither considered treatment related): Two deaths | Any TEAE Grade 3 or 4, patients ([1]; human, in vivo): 11 (52.4) n (%) | Any TEAE leading to dose reduction, patients ([1]; human, in vivo): 0 n (%) | Any TEAE leading to study drug discontinuation, patients ([1]; human, in vivo): 1 (4.8) n (%) | Any TEAE leading to study drug interruption, patients ([1]; human, in vivo): 9 (42.9) n (%) | Any TESAE, patients ([1]; human, in vivo): 8 (38.1) n (%) | Any treatment-related TEAE Grade 3 or 4, patients ([1]; human, in vivo): 2 (9.5) n (%) | Any treatment-related TESAE, patients ([1]; human, in vivo): 0 n (%) | TEAE anemia, frequency ([1]; human, in vivo): 28.6% | TEAE constipation, frequency ([1]; human, in vivo): 23.8% | TEAE decreased appetite, frequency ([1]; human, in vivo): 33% | TEAE dyspnea, frequency ([1]; human, in vivo): 33% | TEAE fatigue, frequency ([1]; human, in vivo): 28.6% | TEAE nausea, frequency ([1]; human, in vivo): 28.6% | Treatment-related TEAE Grade 3 or 4, related to the named study drug, patients ([1]; human, in vivo): 2 (9.5) n (%) | Treatment-related TEAEs, related to the named study drug, patients ([1]; human, in vivo): 12 (57.1) n (%) | Treatment-related TESAE, related to the named study drug, patients ([1]; human, in vivo): 0 n (%) | Treatment‐related Grade 3/4 TEAE anemia ([1]; human, in vivo): 9.5% | Treatment‐related Grade 3/4 TEAE hyponatremia ([1]; human, in vivo): 4.8% | dose proportionality of systemic exposure [2]: approximately dose proportional | Deaths resulting from TEAEs ([3]; Part 2): no deaths | Any TEAE Grade 3 or 4, patients ([3]; human, in vivo): 13 (61.9) n (%) | Any TEAE leading to dose reduction, patients ([3]; human, in vivo): 2 (9.5) n (%) | Any TEAE leading to study drug discontinuation, patients ([3]; human, in vivo): 0 n (%) | Any TEAE leading to study drug interruption, patients ([3]; human, in vivo): 7 (33.3) n (%) | Any TEAE, patients ([3]; human, in vivo): 21 (100.0) n (%) | Any TESAE, patients ([3]; human, in vivo): 9 (42.9) n (%) | Any treatment-related TEAE Grade 3 or 4, patients ([3]; human, in vivo): 7 (33.3) n (%) | Any treatment-related TESAE, patients ([3]; human, in vivo): 1 (4.8) n (%) | Grade 3/4 TEAE decreased lymphocyte count ([3]; human, in vivo): 9.5% | TEAE anemia, frequency ([3]; human, in vivo): 23.8% | TEAE constipation, frequency ([3]; human, in vivo): 23.8% | TEAE cough, frequency ([3]; human, in vivo): 28.6% | TEAE diarrhea, frequency ([3]; human, in vivo): 33.3% | TEAE fatigue, frequency ([3]; human, in vivo): 42.9% | TEAE nausea, frequency ([3]; human, in vivo): 23.8% | Tazemetostat‐related Grade 3/4 TEAE acute kidney injury ([3]; human, in vivo): 4.8% | Tazemetostat‐related Grade 3/4 TEAE alanine aminotransferase increased ([3]; human, in vivo): 4.8% | Tazemetostat‐related Grade 3/4 TEAE anemia ([3]; human, in vivo): 9.5% | Tazemetostat‐related Grade 3/4 TEAE aspartate aminotransferase ([3]; human, in vivo): 4.8%
